Test results as given in ChEMBL document CHEMBL4342415, “Inhibition of the Cytolytic Protein Perforin Prevents Rejection of Transplanted Bone Marrow Stem Cells in Vivo” (J Med Chem, 2020).
One block for each molecule: values may come before it. Active and inactive are the calls of the source. The rule behind the calls is not given here.

What was measured:
[1] = Toxicity in human KHYG-1 cells assessed as cell viability at 10 uM after 24 h by trypan blue exclusion assay relative to control; format: cell-based; conditions: read-out: Activity
[2] = target: T1, Perforin-1 (Homo sapiens) (UniProt P14222); experiment: Inhibition of perforin in human KHYG-1 cells pre-treated with compound for 20 mins assessed as reduction in KHYG-1 cells-mediated cell lysis of human K562 cells at 20 uM measured after 4 hrs by 51Cr release based gamma counting method
T1 sequence (whole entry): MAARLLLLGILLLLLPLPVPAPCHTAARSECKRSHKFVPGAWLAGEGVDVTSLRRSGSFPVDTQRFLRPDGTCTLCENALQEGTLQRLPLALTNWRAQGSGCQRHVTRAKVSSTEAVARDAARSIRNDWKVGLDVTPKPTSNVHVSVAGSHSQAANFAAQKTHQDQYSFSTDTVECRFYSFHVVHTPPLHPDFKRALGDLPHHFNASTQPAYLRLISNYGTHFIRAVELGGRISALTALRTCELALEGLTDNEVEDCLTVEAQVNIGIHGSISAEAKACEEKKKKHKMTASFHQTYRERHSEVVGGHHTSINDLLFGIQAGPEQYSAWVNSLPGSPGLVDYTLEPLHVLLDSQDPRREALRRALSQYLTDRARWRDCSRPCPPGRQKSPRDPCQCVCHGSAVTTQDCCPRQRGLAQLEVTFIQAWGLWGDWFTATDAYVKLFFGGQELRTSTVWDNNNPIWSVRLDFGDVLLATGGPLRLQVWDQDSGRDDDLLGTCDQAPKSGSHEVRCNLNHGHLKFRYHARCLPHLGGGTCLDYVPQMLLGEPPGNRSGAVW

[3] = Half life in CD1 mouse at 75 mg/kg, ip measured during 15 mins to 24 hrs by LC-MS/MS analysis; format: ADME, organism-based; conditions: in vivo
[4] = Protein binding in CD1 mouse plasma at 10 uM incubated for 6 hrs by LC-MS/MS analysis and equilibrium dialysis; format: ADME, cell-free; conditions: read-out: PPB (converted)
[5] = AUC (0 to infinity) in CD1 mouse at 75 mg/kg, ip measured during 15 mins to 24 hrs by LC-MS/MS analysis; format: ADME, organism-based; parameters: dose 75 mg/kg, route intraperitoneal, time infinity; conditions: in vivo
[6] = Cmax in CD1 mouse at 75 mg/kg, ip measured during 15 mins to 24 hrs by LC-MS/MS analysis; format: ADME, organism-based; parameters: dose 75 mg/kg, route intraperitoneal; conditions: in vivo
[7] = Stability in CD1 mouse liver microsomes assessed as parent compound remaining level at 3 uM pre-incubated for 30 mins before NADPH addition by LC-MS/MS analysis; format: ADME, Microsome; conditions: read-out: Stability
[8] = Solubility in water by HPLC analysis; format: physicochemical
[9] = Stability in human liver microsomes assessed as parent compound remaining level at 3 uM pre-incubated for 30 mins before NADPH addition by LC-MS/MS analysis; format: ADME, Microsome; conditions: read-out: Stability
[10] = Stability in Sprague-Dawley rat liver microsomes assessed as parent compound remaining level at 3 uM pre-incubated for 30 mins before NADPH addition by LC-MS/MS analysis; format: ADME, Microsome; conditions: read-out: Stability
[11] = system: Mus musculus; experiment: (§1) Suppression of bone marrow transplant rejection in B6 mouse model of bone marrow transplantation receiving both allogeneic MHC- mismatched BALB/c stem cells and syngeneic MHC-matched B6 stem cells assessed as reduction in perforin-dependent NK cell-mediated graft rejection in peripheral blood at 125 mg/kg, ip dosed immediately prior to cell transfer and 18 hrs after cell transfer and measured after 24 hrs relative to control; format: functional; parameters: scale not given: the % may be the effect or the level left
[12] = Cmax in CD1 mouse at 90 mg/kg, ip measured during 15 mins to 24 hrs by LC-MS/MS analysis; format: ADME, organism-based; parameters: dose 90 mg/kg, route intraperitoneal; conditions: in vivo
[13] = AUC (0 to infinity) in CD1 mouse at 90 mg/kg, ip measured during 15 mins to 24 hrs by LC-MS/MS analysis; format: ADME, organism-based; parameters: dose 90 mg/kg, route intraperitoneal, time infinity; conditions: in vivo
[14] = Half life in CD1 mouse at 90 mg/kg, ip measured during 15 mins to 24 hrs by LC-MS/MS analysis; format: ADME, organism-based; conditions: in vivo
[15] = Time at which unbound plasma concentration stays above IC50 in C57BL/6 mouse at 90 mg/kg, ip; format: ADME, organism-based; conditions: in vivo
[16] = Toxicity in B6 mouse model of bone marrow transplantation receiving both allogeneic MHC- mismatched BALB/c stem cells and syngeneic MHC-matched B6 stem cells assessed as drug tolerability at 125 mg/kg, ip dosed immediately prior to cell transfer and 18 hrs after cell transfer and measured after 24 hrs relative to control; format: organism-based; conditions: in vivo
[17] = system: Mus musculus; experiment: as §1, with “spleen” for “peripheral blood”; format: functional; parameters: scale not given: the % may be the effect or the level left
[18] = Unbound fraction in human KHYG-1 cell media; format: ADME
[19] = Stability Milli-Q water at 10 uM incubated for 24 hrs by LC-MS/MS analysis; format: physicochemical; conditions: read-out: Stability
[20] = AUC (0 to infinity) in CD1 mouse at 150 mg/kg, ip measured during 15 mins to 24 hrs by LC-MS/MS analysis; format: ADME, organism-based; parameters: dose 150 mg/kg, time infinity, route intraperitoneal; conditions: in vivo
[21] = Cmax in CD1 mouse at 150 mg/kg, ip measured during 15 mins to 24 hrs by LC-MS/MS analysis; format: ADME, organism-based; parameters: dose 150 mg/kg, route intraperitoneal; conditions: in vivo
[22] = Half life in CD1 mouse at 150 mg/kg, ip measured during 15 mins to 24 hrs by LC-MS/MS analysis; format: ADME, organism-based; conditions: in vivo

SMILES: CN1Cc2cc(-c3ccc(-c4cncc(NS(=O)(=O)c5cccc(C(F)(F)F)c5)c4)s3)cnc2C1=O [listing 1 of 2 here]
- viability at 24 h, 10 µM [1]: 97.8%

SMILES: O=C1c2ccc(-c3ccc(-c4cncc(NS(=O)(=O)c5ccc(F)cc5F)c4)s3)cc2CN1CCN1CCOCC1
- inhibition [2]: inactive

SMILES: O=C1c2ccc(-c3ccc(-c4cncc(NS(=O)(=O)c5ccc(F)cc5F)c4)s3)cc2CN1CCCO
- inhibition [2]: inactive

SMILES: COc1ncc(-c2ccc(-c3cnc4c(c3)CN(C)C4=O)s2)cc1NS(=O)(=O)c1ccccc1[N+](=O)[O-]
- half-life [3]: 1.6 h
- fraction unbound at 6 h, 10 µM [4]: 0.0009
- AUC(0-inf) [5]: 2240 µM·h
- viability at 24 h, 10 µM [1]: 95.8%
- Cmax [6]: 637 µM

SMILES: O=C1c2ccc(-c3ccc(-c4cncc(NS(=O)(=O)c5ccc(F)cc5F)c4)s3)cc2CN1CC(O)CO (configuration not stated)
- inhibition [2]: inactive

SMILES: O=C1c2ccc(-c3ccc(-c4cncc(NS(=O)(=O)c5ccc(F)cc5F)c4)s3)cc2CN1CCN1CCCCC1
- inhibition [2]: inactive

SMILES: CN1CCN(CCN2Cc3cc(-c4ccc(-c5cncc(NS(=O)(=O)c6ccc(F)cc6F)c5)s4)ccc3C2=O)CC1
- inhibition [2]: inactive

SMILES: COc1ncc(-c2ccc(-c3cnc4c(c3)CN(C)C4=O)s2)cc1NS(=O)(=O)c1ccc(F)cc1F
- Activity [11]: 66%
- Cmax [12]: 1310 µM
- fraction unbound at 6 h, 10 µM [4]: 0.0009
- AUC(0-inf) [13]: 42500 µM·h
- viability at 24 h, 10 µM [1]: 90.6%
- half-life [14]: 18.9 h
- Time [15]: 5 to 6 h
- Activity [16]: Non-Toxic
- Activity [17]: 66%
- fraction unbound [18]: 0.255

SMILES: O=C1NCc2ncc(-c3ccc(-c4cncc([N-]S(=O)(=O)c5ccc(F)cc5F)c4)s3)cc21.[Na+]
- remaining at 3 µM [7]: 83%
- solubility [8]: 3770 µg/mL
- remaining at 24 h, 10 µM [19]: 93%
- remaining at 3 µM [9]: 95%
- remaining at 3 µM [10]: 100%

SMILES: CN1Cc2cc(-c3ccc(-c4cncc(NS(=O)(=O)c5ccccc5C(F)(F)F)c4)s3)cnc2C1=O
- viability at 24 h, 10 µM [1]: 100%

SMILES: O=C1c2ccc(-c3ccc(-c4cncc(NS(=O)(=O)c5ccc(F)cc5F)c4)s3)cc2CN1CCN1CCCC1
- inhibition [2]: inactive

SMILES: O=C1NCc2cc(-c3ccc(-c4cncc(NS(=O)(=O)c5ccc(F)cc5F)c4)s3)cnc21
- viability at 24 h, 10 µM [1]: 49%

SMILES: O=C1NCc2ncc(-c3ccc(-c4cncc(NS(=O)(=O)c5ccc(F)cc5F)c4)s3)cc21 [listing 1 of 2 here]
- fraction unbound at 6 h, 10 µM [4]: 0.0011
- viability at 24 h, 10 µM [1]: 100%
- AUC(0-inf) [20]: 7670 µM·h
- Cmax [21]: 1320 µM
- half-life [22]: 5.5 h

SMILES: COc1ncc(-c2ccc(-c3cnc4c(c3)CN(C)C4=O)s2)cc1NS(=O)(=O)c1ccccc1C(F)(F)F
- viability at 24 h, 10 µM [1]: 95.8%

SMILES: CN(C)CCN1Cc2cc(-c3ccc(-c4cncc(NS(=O)(=O)c5ccc(F)cc5F)c4)s3)ccc2C1=O
- inhibition [2]: inactive

SMILES: O=C1NCc2ncc(-c3ccc(-c4cncc(NS(=O)(=O)c5ccc(F)cc5F)c4)s3)cc21 [listing 2 of 2 here]
- inhibition [2]: 40%

Further lines, with some results ahead:

- remaining at 3 µM [7]: 91%
- solubility [8]: 7340 µg/mL
- remaining at 3 µM [9]: 63%
- remaining at 3 µM [10]: 50%
SMILES: COc1ncc(-c2ccc(-c3cnc4c(c3)CN(C)C4=O)s2)cc1[N-]S(=O)(=O)c1ccccc1C(F)(F)F.[Na+]

- inhibition [2]: 40%
SMILES: CN1Cc2cc(-c3ccc(-c4cncc(NS(=O)(=O)c5cccc(C(F)(F)F)c5)c4)s3)cnc2C1=O [listing 2 of 2 here]

- Cmax [12]: 860 µM
- fraction unbound at 6 h, 10 µM [4]: 0.0006
- AUC(0-inf) [13]: 10400 µM·h
- half-life [14]: 6.8 h
- fraction unbound [18]: 0.456
SMILES: CN1Cc2cc(-c3ccc(-c4cncc(NS(=O)(=O)c5ccc(F)cc5F)c4)s3)cnc2C1=O
- viability at 24 h, 10 µM [1]: 99.6%

- remaining at 3 µM [7]: 100%
- solubility [8]: 20300 µg/mL
- remaining at 24 h, 10 µM [19]: 100%
- remaining at 3 µM [9]: 80%
- remaining at 3 µM [10]: 100%
SMILES: CN1Cc2cc(-c3ccc(-c4cncc([N-]S(=O)(=O)c5ccc(F)cc5F)c4)s3)cnc2C1=O.[Na+]

- remaining at 3 µM [7]: 86%
- solubility [8]: 4280 µg/mL
- remaining at 3 µM [9]: 56%
- remaining at 3 µM [10]: 36%
SMILES: CN1Cc2cc(-c3ccc(-c4cncc([N-]S(=O)(=O)c5ccccc5C(F)(F)F)c4)s3)cnc2C1=O.[Na+]

- remaining at 3 µM [7]: 88%
- solubility [8]: 20300 µg/mL
- remaining at 3 µM [9]: 46%
- remaining at 3 µM [10]: 84%
SMILES: CN1Cc2cc(-c3ccc(-c4cncc([N-]S(=O)(=O)c5cccc(C(F)(F)F)c5)c4)s3)cnc2C1=O.[Na+]

- remaining at 3 µM [7]: 95%
- solubility [8]: 4810 µg/mL
- remaining at 24 h, 10 µM [19]: 100%
- remaining at 3 µM [9]: 94%
- remaining at 3 µM [10]: 80%
SMILES: COc1ncc(-c2ccc(-c3cnc4c(c3)CN(C)C4=O)s2)cc1[N-]S(=O)(=O)c1ccccc1[N+](=O)[O-].[Na+]

- solubility [8]: 1130 µg/mL
SMILES: O=C1NCc2cc(-c3ccc(-c4cncc([N-]S(=O)(=O)c5ccc(F)cc5F)c4)s3)cnc21.[Na+]

- remaining at 3 µM [7]: 100%
- solubility [8]: 18300 µg/mL
- remaining at 24 h, 10 µM [19]: 100%
- remaining at 3 µM [9]: 75%
- remaining at 3 µM [10]: 100%
SMILES: COc1ncc(-c2ccc(-c3cnc4c(c3)CN(C)C4=O)s2)cc1[N-]S(=O)(=O)c1ccc(F)cc1F.[Na+]
